Measured values: ChEMBL document CHEMBL5154644, “Design, Synthesis, and Structure-Activity Relationship Optimization of Pyrazolopyrimidine Amide Inhibitors of Phosphoinositide 3-Kinase γ (PI3Kγ)” (J Med Chem, 2022)

biological target: T1, Phosphatidylinositol 4,5-bisphosphate 3-kinase catalytic subunit gamma isoform (Homo sapiens, UniProt P48736); assay: Inhibition of PI3Kgamma (unknown origin) in […] stimulated human THP-1 cells assessed as reduction in Akt phosphorylation level at Ser473 residue preincubated for 60 mins followed by rhMCP-1 stimulation and measured after 2 mins by AlphaLisa assay; assay type: cell-based; conditions: not given
T1 sequence (P48736 whole entry, canonical isoform): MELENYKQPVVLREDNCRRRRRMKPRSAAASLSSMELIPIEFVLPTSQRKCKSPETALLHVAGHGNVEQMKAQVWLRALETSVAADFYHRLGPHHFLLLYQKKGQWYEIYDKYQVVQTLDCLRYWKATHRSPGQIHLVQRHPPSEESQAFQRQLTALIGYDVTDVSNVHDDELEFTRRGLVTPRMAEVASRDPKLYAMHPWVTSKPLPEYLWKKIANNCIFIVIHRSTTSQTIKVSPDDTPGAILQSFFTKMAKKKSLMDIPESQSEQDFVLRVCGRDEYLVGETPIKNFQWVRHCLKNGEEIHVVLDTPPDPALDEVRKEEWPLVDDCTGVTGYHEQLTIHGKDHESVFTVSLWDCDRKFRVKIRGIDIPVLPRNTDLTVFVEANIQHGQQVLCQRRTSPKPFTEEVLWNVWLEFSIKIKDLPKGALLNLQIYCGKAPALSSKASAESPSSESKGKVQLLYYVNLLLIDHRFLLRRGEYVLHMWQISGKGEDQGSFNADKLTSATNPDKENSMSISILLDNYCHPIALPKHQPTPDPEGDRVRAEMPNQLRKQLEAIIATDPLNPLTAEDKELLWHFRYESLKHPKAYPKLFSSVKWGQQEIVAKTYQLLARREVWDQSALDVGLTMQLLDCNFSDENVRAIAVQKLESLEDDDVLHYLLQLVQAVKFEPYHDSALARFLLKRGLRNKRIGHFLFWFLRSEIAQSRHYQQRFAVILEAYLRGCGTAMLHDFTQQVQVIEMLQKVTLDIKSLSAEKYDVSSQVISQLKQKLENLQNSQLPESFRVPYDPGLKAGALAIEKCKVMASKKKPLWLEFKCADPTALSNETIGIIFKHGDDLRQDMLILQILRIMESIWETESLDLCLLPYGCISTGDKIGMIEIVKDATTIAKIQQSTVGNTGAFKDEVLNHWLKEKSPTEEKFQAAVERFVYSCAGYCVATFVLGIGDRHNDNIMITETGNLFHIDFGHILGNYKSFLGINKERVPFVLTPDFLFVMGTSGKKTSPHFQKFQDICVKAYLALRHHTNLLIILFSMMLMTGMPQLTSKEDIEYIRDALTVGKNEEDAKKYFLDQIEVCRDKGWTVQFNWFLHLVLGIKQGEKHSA

Compound | IC50
C[C@H](N1Cc2cc(-c3ccn4nc(N)c(C(=O)N[C@@H](CO)C5CC5)c4n3)cc(NS(C)(=O)=O)c2C1=O)C(F)(F)F | 0.072 µM
C[C@H](N1Cc2cc(-c3ccn4nc(N)c(C(=O)N[C@@H](CO)C5CC5)c4n3)cc(C3CC3)c2C1=O)C(F)(F)F | 0.08 µM
C[C@H](N1Cc2cc(-c3ccn4nc(N)c(C(=O)N[C@@H](CO)C5CC5)c4n3)cc(Cl)c2C1=O)C(F)(F)F | 0.083 µM

The next compounds have a lower IC50 than those just listed; values first:

IC50 | Compound
0.033 µM | C[C@@H](C1CC1)N1Cc2cc(-c3ccn4nc(N)c(C(=O)N[C@@H](CO)C5CC5)c4n3)cc(NS(C)(=O)=O)c2C1=O
0.022 µM | C[C@@H](C1CC1)N1Cc2cc(-c3ccn4nc(N)c(C(=O)N[C@H]5CC[C@](C)(O)CC5)c4n3)cc(NS(C)(=O)=O)c2C1=O

species on record: Homo sapiens; assay: Selectivity ratio of IC50 for inhibition of PI3Kdelta (unknown origin) to IC50 for inhibition of PI3Kgamma (unknown origin); conditions: not given

Ratio IC50 | Compound
238 | C[C@H](N1Cc2cc(-c3ccn4nc(N)c(C(=O)N[C@@H](CO)C5CC5)c4n3)cc(NS(C)(=O)=O)c2C1=O)C(F)(F)F
1580 | C[C@H](N1Cc2cc(-c3ccn4nc(N)c(C(=O)N[C@@H](CO)C5CC5)c4n3)cc(C3CC3)c2C1=O)C(F)(F)F
1460 | C[C@H](N1Cc2cc(-c3ccn4nc(N)c(C(=O)N[C@@H](CO)C5CC5)c4n3)cc(Cl)c2C1=O)C(F)(F)F

biological target: Phosphatidylinositol 4,5-bisphosphate 3-kinase catalytic subunit beta isoform (Homo sapiens, UniProt P42338); assay: Inhibition of PI3Kbeta (unknown origin) using PIP2 as substrate preincubated for 1 hr followed by substrate addition and measured after 60 mins in presence of ATP by ADP-glo assay; conditions: not given
Sequence (P42338 whole entry, canonical isoform): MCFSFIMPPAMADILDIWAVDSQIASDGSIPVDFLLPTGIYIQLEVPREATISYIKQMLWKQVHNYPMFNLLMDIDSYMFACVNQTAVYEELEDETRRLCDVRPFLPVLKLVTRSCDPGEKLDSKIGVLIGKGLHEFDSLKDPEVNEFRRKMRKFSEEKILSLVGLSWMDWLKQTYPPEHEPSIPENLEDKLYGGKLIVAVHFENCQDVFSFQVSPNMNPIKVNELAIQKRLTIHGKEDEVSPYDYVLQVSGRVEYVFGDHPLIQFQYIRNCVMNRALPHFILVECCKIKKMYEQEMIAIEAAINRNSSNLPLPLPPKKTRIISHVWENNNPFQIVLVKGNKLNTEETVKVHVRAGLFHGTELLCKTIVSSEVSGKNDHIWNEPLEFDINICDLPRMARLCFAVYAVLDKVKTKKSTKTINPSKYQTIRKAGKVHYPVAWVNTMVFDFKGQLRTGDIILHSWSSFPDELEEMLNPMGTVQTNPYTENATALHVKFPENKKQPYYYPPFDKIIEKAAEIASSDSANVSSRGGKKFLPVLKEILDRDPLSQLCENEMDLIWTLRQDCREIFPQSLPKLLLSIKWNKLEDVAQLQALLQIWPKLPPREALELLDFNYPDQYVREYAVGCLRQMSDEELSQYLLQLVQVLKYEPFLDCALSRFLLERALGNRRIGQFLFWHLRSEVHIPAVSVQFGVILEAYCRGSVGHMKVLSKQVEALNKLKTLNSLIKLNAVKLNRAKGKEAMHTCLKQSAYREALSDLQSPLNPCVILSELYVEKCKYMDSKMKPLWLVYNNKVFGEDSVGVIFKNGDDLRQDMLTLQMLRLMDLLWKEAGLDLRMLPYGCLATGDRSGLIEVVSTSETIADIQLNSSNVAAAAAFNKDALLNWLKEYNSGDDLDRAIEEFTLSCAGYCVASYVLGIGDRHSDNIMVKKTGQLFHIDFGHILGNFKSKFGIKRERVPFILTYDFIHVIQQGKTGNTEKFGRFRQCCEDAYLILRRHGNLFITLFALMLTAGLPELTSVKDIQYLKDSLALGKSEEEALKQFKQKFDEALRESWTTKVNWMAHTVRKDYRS

IC50 | Compound
7.57 µM | C[C@@H](C1CC1)N1Cc2cc(-c3ccn4nc(N)c(C(=O)N[C@H]5CC[C@](C)(O)CC5)c4n3)cc(NS(C)(=O)=O)c2C1=O

species on record: Homo sapiens; assay: Selectivity ratio of IC50 for inhibition of PI3Kbeta (unknown origin) to IC50 for inhibition of PI3Kgamma (unknown origin); conditions: not given

Ratio IC50 | Compound
8410 | C[C@@H](C1CC1)N1Cc2cc(-c3ccn4nc(N)c(C(=O)N[C@H]5CC[C@](C)(O)CC5)c4n3)cc(NS(C)(=O)=O)c2C1=O

species on record: Homo sapiens; assay: Selectivity ratio of IC50 for inhibition of PI3Kalpha (unknown origin) to IC50 for inhibition of PI3Kgamma (unknown origin); conditions: not given

Compound | Ratio IC50
C[C@H](N1Cc2cc(-c3ccn4nc(N)c(C(=O)N[C@@H](CO)C5CC5)c4n3)cc(NS(C)(=O)=O)c2C1=O)C(F)(F)F | 474
C[C@H](N1Cc2cc(-c3ccn4nc(N)c(C(=O)N[C@@H](CO)C5CC5)c4n3)cc(C3CC3)c2C1=O)C(F)(F)F | > 3970
C[C@H](N1Cc2cc(-c3ccn4nc(N)c(C(=O)N[C@@H](CO)C5CC5)c4n3)cc(Cl)c2C1=O)C(F)(F)F | > 3140

Now from value to compound:

Ratio IC50 | Compound
1470 | C[C@@H](C1CC1)N1Cc2cc(-c3ccn4nc(N)c(C(=O)N[C@@H](CO)C5CC5)c4n3)cc(NS(C)(=O)=O)c2C1=O
362 | C[C@@H](C1CC1)N1Cc2cc(-c3ccn4nc(N)c(C(=O)N[C@H]5CC[C@](C)(O)CC5)c4n3)cc(NS(C)(=O)=O)c2C1=O

tested on: not listed separately; assay: Metabolic stability in rat hepatocyte assessed as intrinsic clearance per 10^8 cells at 0.5 uM by LC-MS/MS analysis; assay type: ADME, cell-based; conditions: hepatocytes

Compound | hepatocyte intrinsic clearance
C[C@H](N1Cc2cc(-c3ccn4nc(N)c(C(=O)N[C@@H](CO)C5CC5)c4n3)cc(NS(C)(=O)=O)c2C1=O)C(F)(F)F | 2.48 µL/min
C[C@H](N1Cc2cc(-c3ccn4nc(N)c(C(=O)N[C@@H](CO)C5CC5)c4n3)cc(C3CC3)c2C1=O)C(F)(F)F | 1.69 µL/min
C[C@H](N1Cc2cc(-c3ccn4nc(N)c(C(=O)N[C@@H](CO)C5CC5)c4n3)cc(Cl)c2C1=O)C(F)(F)F | 2.98 µL/min

Next, values leading:

hepatocyte intrinsic clearance | Compound
< 1.2 µL/min | C[C@@H](C1CC1)N1Cc2cc(-c3ccn4nc(N)c(C(=O)N[C@@H](CO)C5CC5)c4n3)cc(NS(C)(=O)=O)c2C1=O
8.24 µL/min | C[C@@H](C1CC1)N1Cc2cc(-c3ccn4nc(N)c(C(=O)N[C@H]5CC[C@](C)(O)CC5)c4n3)cc(NS(C)(=O)=O)c2C1=O

tested on: not listed separately; assay: Metabolic stability in human hepatocytes assessed as intrinsic clearance per 10^6 cells at 0.5 uM by LC-MS/MS analysis; assay type: ADME, cell-based, Hepatocyte; conditions: read-out: CLH

Compound | hepatocyte CLint at 0.5 µM
C[C@H](N1Cc2cc(-c3ccn4nc(N)c(C(=O)N[C@@H](CO)C5CC5)c4n3)cc(NS(C)(=O)=O)c2C1=O)C(F)(F)F | 6.31 µL/min/1e6 cells
C[C@H](N1Cc2cc(-c3ccn4nc(N)c(C(=O)N[C@@H](CO)C5CC5)c4n3)cc(C3CC3)c2C1=O)C(F)(F)F | 13.3 µL/min/1e6 cells
C[C@H](N1Cc2cc(-c3ccn4nc(N)c(C(=O)N[C@@H](CO)C5CC5)c4n3)cc(Cl)c2C1=O)C(F)(F)F | 3.18 µL/min/1e6 cells

Next, values leading:

hepatocyte CLint at 0.5 µM | Compound
4.09 µL/min/1e6 cells | C[C@@H](C1CC1)N1Cc2cc(-c3ccn4nc(N)c(C(=O)N[C@@H](CO)C5CC5)c4n3)cc(NS(C)(=O)=O)c2C1=O
3.39 µL/min/1e6 cells | C[C@@H](C1CC1)N1Cc2cc(-c3ccn4nc(N)c(C(=O)N[C@H]5CC[C@](C)(O)CC5)c4n3)cc(NS(C)(=O)=O)c2C1=O

biological target: T1, Phosphatidylinositol 4,5-bisphosphate 3-kinase catalytic subunit gamma isoform; assay: Inhibition of PI3Kgamma in SDF-1alpha stimulated human whole blood assessed as reduction in phospho-AKT kinase activity preincubated for 1 hr followed by SDF-1alpha stimulation and measured after 2 mins by flow cytometric analysis; assay type: tissue-based; conditions: not given

Compound | IC50
C[C@H](N1Cc2cc(-c3ccn4nc(N)c(C(=O)N[C@@H](CO)C5CC5)c4n3)cc(NS(C)(=O)=O)c2C1=O)C(F)(F)F | 1.3 µM
C[C@H](N1Cc2cc(-c3ccn4nc(N)c(C(=O)N[C@@H](CO)C5CC5)c4n3)cc(C3CC3)c2C1=O)C(F)(F)F | 1.3 µM
C[C@H](N1Cc2cc(-c3ccn4nc(N)c(C(=O)N[C@@H](CO)C5CC5)c4n3)cc(Cl)c2C1=O)C(F)(F)F | 0.6 µM

Results, then the compound that gave them:

IC50 | Compound
0.26 µM | C[C@@H](C1CC1)N1Cc2cc(-c3ccn4nc(N)c(C(=O)N[C@@H](CO)C5CC5)c4n3)cc(NS(C)(=O)=O)c2C1=O
0.42 µM | C[C@@H](C1CC1)N1Cc2cc(-c3ccn4nc(N)c(C(=O)N[C@H]5CC[C@](C)(O)CC5)c4n3)cc(NS(C)(=O)=O)c2C1=O

biological target: T1, Phosphatidylinositol 4,5-bisphosphate 3-kinase catalytic subunit gamma isoform; assay: Inhibition of PI3Kgamma (unknown origin) using PIP2 as substrate preincubated for 1 hr followed by substrate addition and measured after 60 mins in presence of ATP by ADP-glo assay; conditions: not given

Compound | IC50
C[C@H](N1Cc2cc(-c3ccn4nc(N)c(C(=O)N[C@@H](CO)C5CC5)c4n3)cc(NS(C)(=O)=O)c2C1=O)C(F)(F)F | 0.0035 µM
C[C@H](N1Cc2cc(-c3ccn4nc(N)c(C(=O)N[C@@H](CO)C5CC5)c4n3)cc(C3CC3)c2C1=O)C(F)(F)F | 0.0025 µM
C[C@H](N1Cc2cc(-c3ccn4nc(N)c(C(=O)N[C@@H](CO)C5CC5)c4n3)cc(Cl)c2C1=O)C(F)(F)F | 0.0031 µM

Continued, values first:

IC50 | Compound
0.0008 µM | C[C@@H](C1CC1)N1Cc2cc(-c3ccn4nc(N)c(C(=O)N[C@@H](CO)C5CC5)c4n3)cc(NS(C)(=O)=O)c2C1=O
0.0009 µM | C[C@@H](C1CC1)N1Cc2cc(-c3ccn4nc(N)c(C(=O)N[C@H]5CC[C@](C)(O)CC5)c4n3)cc(NS(C)(=O)=O)c2C1=O

biological target: T2, Phosphatidylinositol 4,5-bisphosphate 3-kinase catalytic subunit delta isoform (Homo sapiens, UniProt O00329); assay: Inhibition of PI3Kdelta (unknown origin) using PIP2 as substrate preincubated for 1 hr followed by substrate addition and measured after 60 mins in presence of ATP by ADP-glo assay; conditions: not given
T2 sequence (O00329 whole entry): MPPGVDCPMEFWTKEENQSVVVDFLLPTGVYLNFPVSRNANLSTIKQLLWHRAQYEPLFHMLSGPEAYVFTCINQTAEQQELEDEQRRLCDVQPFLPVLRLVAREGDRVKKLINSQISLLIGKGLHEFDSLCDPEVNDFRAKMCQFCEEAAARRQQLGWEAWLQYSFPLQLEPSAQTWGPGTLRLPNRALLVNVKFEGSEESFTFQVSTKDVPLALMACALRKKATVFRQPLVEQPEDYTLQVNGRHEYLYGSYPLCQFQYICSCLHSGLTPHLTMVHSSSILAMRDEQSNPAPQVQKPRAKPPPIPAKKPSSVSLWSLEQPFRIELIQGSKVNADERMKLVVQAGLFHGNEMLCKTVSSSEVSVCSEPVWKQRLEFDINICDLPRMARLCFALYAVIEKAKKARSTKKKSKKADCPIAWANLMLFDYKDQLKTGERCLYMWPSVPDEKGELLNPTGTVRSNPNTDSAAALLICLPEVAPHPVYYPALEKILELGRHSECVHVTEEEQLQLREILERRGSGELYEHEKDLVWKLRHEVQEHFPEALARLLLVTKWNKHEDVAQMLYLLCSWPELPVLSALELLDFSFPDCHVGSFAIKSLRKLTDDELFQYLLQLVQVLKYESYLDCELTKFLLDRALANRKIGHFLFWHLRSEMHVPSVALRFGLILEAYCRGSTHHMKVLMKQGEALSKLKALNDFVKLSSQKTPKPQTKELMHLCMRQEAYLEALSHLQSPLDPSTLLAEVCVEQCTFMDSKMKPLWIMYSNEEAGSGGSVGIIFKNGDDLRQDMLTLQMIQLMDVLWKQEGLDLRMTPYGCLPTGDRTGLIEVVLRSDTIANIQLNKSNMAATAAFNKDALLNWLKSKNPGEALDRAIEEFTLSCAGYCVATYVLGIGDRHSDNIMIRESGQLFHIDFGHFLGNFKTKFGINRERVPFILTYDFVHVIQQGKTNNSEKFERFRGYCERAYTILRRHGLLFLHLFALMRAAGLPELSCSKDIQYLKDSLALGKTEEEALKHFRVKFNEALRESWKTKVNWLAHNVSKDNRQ

Compound | IC50
C[C@H](N1Cc2cc(-c3ccn4nc(N)c(C(=O)N[C@@H](CO)C5CC5)c4n3)cc(NS(C)(=O)=O)c2C1=O)C(F)(F)F | 0.825 µM
C[C@H](N1Cc2cc(-c3ccn4nc(N)c(C(=O)N[C@@H](CO)C5CC5)c4n3)cc(C3CC3)c2C1=O)C(F)(F)F | 3.98 µM
C[C@H](N1Cc2cc(-c3ccn4nc(N)c(C(=O)N[C@@H](CO)C5CC5)c4n3)cc(Cl)c2C1=O)C(F)(F)F | 4.64 µM

The remaining lines, values ahead:

IC50 | Compound
0.991 µM | C[C@@H](C1CC1)N1Cc2cc(-c3ccn4nc(N)c(C(=O)N[C@@H](CO)C5CC5)c4n3)cc(NS(C)(=O)=O)c2C1=O
0.268 µM | C[C@@H](C1CC1)N1Cc2cc(-c3ccn4nc(N)c(C(=O)N[C@H]5CC[C@](C)(O)CC5)c4n3)cc(NS(C)(=O)=O)c2C1=O

tested on: not listed separately; assay: Hepatic clearance in Sprague-Dawley rat by LC-MS/MS analysis; assay type: ADME; conditions: in vivo

CLH | Compound
1.8 L/h/kg | C[C@@H](C1CC1)N1Cc2cc(-c3ccn4nc(N)c(C(=O)N[C@H]5CC[C@](C)(O)CC5)c4n3)cc(NS(C)(=O)=O)c2C1=O

biological target: CYP3A4 (Homo sapiens, UniProt P08684); assay: in vitro; conditions: human liver microsomes, probe midazolam
Sequence (P08684 whole entry): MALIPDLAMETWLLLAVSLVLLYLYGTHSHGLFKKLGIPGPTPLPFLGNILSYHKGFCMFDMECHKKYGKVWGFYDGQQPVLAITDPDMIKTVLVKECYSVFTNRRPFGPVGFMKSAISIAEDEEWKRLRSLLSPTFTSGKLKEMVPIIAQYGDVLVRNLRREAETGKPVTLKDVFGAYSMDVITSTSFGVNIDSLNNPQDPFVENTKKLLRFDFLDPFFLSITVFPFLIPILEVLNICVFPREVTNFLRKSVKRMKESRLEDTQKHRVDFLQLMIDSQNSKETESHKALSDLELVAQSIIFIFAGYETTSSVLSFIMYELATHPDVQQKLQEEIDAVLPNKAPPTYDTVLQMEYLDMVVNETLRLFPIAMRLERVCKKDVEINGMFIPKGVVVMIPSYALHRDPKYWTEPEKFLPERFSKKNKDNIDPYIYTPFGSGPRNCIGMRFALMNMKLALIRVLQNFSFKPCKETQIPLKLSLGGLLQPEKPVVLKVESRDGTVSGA
Description: Time dependent inhibition of CYP3A4 in human liver microsomes at 10 uM using midazolam as substrate preincubated for 30 mins in presence of NADPH by LC/MS/MS analysis relative to control

inhibition at 30 min, 10 µM | Compound
12% | C[C@@H](C1CC1)N1Cc2cc(-c3ccn4nc(N)c(C(=O)N[C@H]5CC[C@](C)(O)CC5)c4n3)cc(NS(C)(=O)=O)c2C1=O
35% | C[C@@H](C1CC1)N1Cc2cc(-c3ccn4nc(N)c(C(=O)N[C@@H](CO)C5CC5)c4n3)cc(NS(C)(=O)=O)c2C1=O

biological target: Phosphatidylinositol 4,5-bisphosphate 3-kinase catalytic subunit alpha isoform (Homo sapiens, UniProt P42336); assay: Inhibition of PI3Kalpha (unknown origin) using PIP2 as substrate preincubated for 1 hr followed by substrate addition and measured after 60 mins in presence of ATP by ADP-glo assay; conditions: not given
Sequence (P42336 whole entry, canonical isoform): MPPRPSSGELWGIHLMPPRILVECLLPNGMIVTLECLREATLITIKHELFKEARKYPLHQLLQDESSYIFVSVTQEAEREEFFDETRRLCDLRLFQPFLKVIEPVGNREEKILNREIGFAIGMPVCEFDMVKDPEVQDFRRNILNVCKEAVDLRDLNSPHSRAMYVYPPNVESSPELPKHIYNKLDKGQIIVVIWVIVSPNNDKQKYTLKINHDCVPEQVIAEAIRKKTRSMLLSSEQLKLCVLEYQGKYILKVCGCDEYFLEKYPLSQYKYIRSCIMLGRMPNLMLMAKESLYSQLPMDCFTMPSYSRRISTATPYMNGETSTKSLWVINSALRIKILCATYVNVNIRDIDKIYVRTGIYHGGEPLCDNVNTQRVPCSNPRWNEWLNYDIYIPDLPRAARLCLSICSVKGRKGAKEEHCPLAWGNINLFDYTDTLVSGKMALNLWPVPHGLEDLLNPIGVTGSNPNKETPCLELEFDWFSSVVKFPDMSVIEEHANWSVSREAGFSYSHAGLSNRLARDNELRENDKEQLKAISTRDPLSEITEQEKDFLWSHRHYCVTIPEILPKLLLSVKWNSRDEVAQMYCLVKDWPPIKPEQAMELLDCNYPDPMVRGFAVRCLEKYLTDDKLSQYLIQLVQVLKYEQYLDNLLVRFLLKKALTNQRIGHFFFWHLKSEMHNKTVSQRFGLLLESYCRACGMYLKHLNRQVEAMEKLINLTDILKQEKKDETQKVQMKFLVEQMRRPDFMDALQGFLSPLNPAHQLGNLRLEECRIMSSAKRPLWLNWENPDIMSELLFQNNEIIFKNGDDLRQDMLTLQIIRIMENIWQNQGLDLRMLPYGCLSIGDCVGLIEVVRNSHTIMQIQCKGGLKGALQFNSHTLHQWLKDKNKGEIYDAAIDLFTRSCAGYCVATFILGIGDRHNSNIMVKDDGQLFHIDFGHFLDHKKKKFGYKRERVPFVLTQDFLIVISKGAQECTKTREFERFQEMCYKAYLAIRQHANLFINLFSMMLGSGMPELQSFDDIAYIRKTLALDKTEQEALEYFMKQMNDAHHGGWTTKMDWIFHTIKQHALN

Compound | IC50
C[C@H](N1Cc2cc(-c3ccn4nc(N)c(C(=O)N[C@@H](CO)C5CC5)c4n3)cc(NS(C)(=O)=O)c2C1=O)C(F)(F)F | 1.64 µM
C[C@H](N1Cc2cc(-c3ccn4nc(N)c(C(=O)N[C@@H](CO)C5CC5)c4n3)cc(C3CC3)c2C1=O)C(F)(F)F | > 10 µM
C[C@H](N1Cc2cc(-c3ccn4nc(N)c(C(=O)N[C@@H](CO)C5CC5)c4n3)cc(Cl)c2C1=O)C(F)(F)F | > 10 µM

The remaining lines, values ahead:

IC50 | Compound
1.2 µM | C[C@@H](C1CC1)N1Cc2cc(-c3ccn4nc(N)c(C(=O)N[C@@H](CO)C5CC5)c4n3)cc(NS(C)(=O)=O)c2C1=O
0.326 µM | C[C@@H](C1CC1)N1Cc2cc(-c3ccn4nc(N)c(C(=O)N[C@H]5CC[C@](C)(O)CC5)c4n3)cc(NS(C)(=O)=O)c2C1=O
